Paper PMC9516332 (Frontiers in Oncology, 2022)
pIC50: −log10 of the molar value. Read-outs that look alike come from different tables or passages of the source.

Columns and labels:
[1] = target: T1, panel of 255 wild-type kinases (Homo sapiens, UniProt Q8IW41); assay: Kinase panel profiling at 1 µmol/L (MSA or IMAP), percentage inhibition; format: biochemical; settings: MAPKAPK5; 1 µmol/L single concentration; read-out: %-inhibition, MAPKAPK5
T1 sequence (Q8IW41 1-473): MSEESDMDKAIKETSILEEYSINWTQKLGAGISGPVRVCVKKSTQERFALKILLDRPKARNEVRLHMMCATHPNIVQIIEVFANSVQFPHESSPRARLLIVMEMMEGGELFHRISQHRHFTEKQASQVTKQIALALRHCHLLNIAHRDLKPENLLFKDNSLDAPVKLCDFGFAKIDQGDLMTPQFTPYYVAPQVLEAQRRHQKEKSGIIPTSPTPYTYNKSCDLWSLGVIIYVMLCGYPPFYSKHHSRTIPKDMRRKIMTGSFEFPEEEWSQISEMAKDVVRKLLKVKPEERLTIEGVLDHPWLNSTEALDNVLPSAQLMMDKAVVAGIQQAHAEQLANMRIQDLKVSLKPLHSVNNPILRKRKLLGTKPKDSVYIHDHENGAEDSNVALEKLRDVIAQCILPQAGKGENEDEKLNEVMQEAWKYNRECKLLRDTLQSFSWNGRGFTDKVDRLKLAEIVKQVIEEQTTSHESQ

[2] = target: panel of 255 wild-type kinases (Homo sapiens, UniProt P45983); assay: as above; format: biochemical; settings: kinase JNK1; 1 µmol/L single concentration; read-out: %-inhibition at 1 µmol/L, JNK1
134 cancer cell lines = assay: Cell viability assay (ATPlite, 72 hours), IC50 on cancer cell line panel

With CCN1CCN(c2ccc(Nc3cc(N(C)C(=O)Nc4c(Cl)c(OC)cc(OC)c4Cl)ncn3)cc2)CC1 [infigratinib] the inhibition at 1 µM [1] was -6%, the inhibition at 1 µM [2] was -3.19% and the pIC50 (134 cancer cell lines; HEC-6, read-out: IC50 in cell proliferation assay, HEC-6 cell line (EGFR p.A289V)) was < 5.50. The pIC50 (134 cancer cell lines; Homo sapiens, 769-P, read-out: IC50 in cell proliferation assay, cell line 769-P) was < 5.50, the pIC50 (134 cancer cell lines; Homo sapiens, 786-0, read-out: IC50 in cell proliferation assay, cell line 786-O) was < 5.50 and the pIC50 (134 cancer cell lines; Homo sapiens, A 172, read-out: IC50 in cell proliferation assay, cell line A-172) was 7.39. For the same molecule, the pIC50 (134 cancer cell lines; Homo sapiens, A204, read-out: IC50 in cell proliferation assay, cell line A-204) was 7.20, the pIC50 (134 cancer cell lines; Homo sapiens, A498, read-out: IC50 in cell proliferation assay, cell line A-498) was 5.53 and the pIC50 (134 cancer cell lines; Homo sapiens, A549, read-out: IC50 in cell proliferation assay, cell line A-549) was < 5.50. For the same molecule, the pIC50 (134 cancer cell lines; Homo sapiens, A704, read-out: IC50 in cell proliferation assay, cell line A-704) was < 5.50, the pIC50 (134 cancer cell lines; Homo sapiens, A-375, read-out: IC50 in cell proliferation assay, cell line A-375 (BRAF p.V600E)) was < 5.50 and the pIC50 (134 cancer cell lines; Homo sapiens, A-427, read-out: IC50 in cell proliferation assay, cell line A-427) was 5.75. For the same molecule, the pIC50 (134 cancer cell lines; Homo sapiens, ACHN, read-out: IC50 in cell proliferation assay, cell line ACHN) was 5.56, the pIC50 (134 cancer cell lines; Homo sapiens, AN3-CA, read-out: IC50 in cell proliferation assay, cell line AN3-CA (FGFR2 p.N549K)) was 6.69 and the pIC50 (134 cancer cell lines; Homo sapiens, ASPC1, read-out: IC50 in cell proliferation assay, cell line AsPC-1) was < 5.50. For the same molecule, the pIC50 (134 cancer cell lines; Homo sapiens, AU565, read-out: IC50 in cell proliferation assay, cell line AU565 (ERBB2 amplification)) was < 5.50, the pIC50 (134 cancer cell lines; Homo sapiens, BT-20, read-out: IC50 in cell proliferation assay, cell line BT-20) was < 5.50 and the pIC50 (134 cancer cell lines; Homo sapiens, BT-474, read-out: IC50 in cell proliferation assay, cell line BT-474 (ERBB2 amplification)) was < 5.50. The pIC50 (134 cancer cell lines; Homo sapiens, BT-549, read-out: IC50 in cell proliferation assay, cell line BT-549) was < 5.50, the pIC50 (134 cancer cell lines; Homo sapiens, BXPC-3, read-out: IC50 in cell proliferation assay, cell line BxPC-3) was < 5.50 and the pIC50 (134 cancer cell lines; Homo sapiens, C-33-A, read-out: IC50 in cell proliferation assay, cell line C-33 A) was < 5.50. The pIC50 (134 cancer cell lines; Homo sapiens, CAL-27, read-out: IC50 in cell proliferation assay, cell line CAL-27) was < 5.50, the pIC50 (134 cancer cell lines; Homo sapiens, CCF-STTG1, read-out: IC50 in cell proliferation assay, cell line CCF-STTG1) was < 5.50 and the pIC50 (134 cancer cell lines; Homo sapiens, CCRF-CEM, read-out: IC50 in cell proliferation assay, cell line CCRF-CEM) was < 5.50. The pIC50 (134 cancer cell lines; Homo sapiens, COLO 205, read-out: IC50 in cell proliferation assay, cell line COLO 205 (BRAF p.V600E)) was < 5.50, the pIC50 (134 cancer cell lines; Homo sapiens, COLO-829, read-out: IC50 in cell proliferation assay, cell line COLO 829 (BRAF p.V600E)) was < 5.50 and the pIC50 (134 cancer cell lines; Homo sapiens, DLD-1, read-out: IC50 in cell proliferation assay, cell line DLD-1) was < 5.50. The pIC50 (134 cancer cell lines; Homo sapiens, DU-4475, read-out: IC50 in cell proliferation assay, cell line DU4475 (BRAF p.V600E)) was < 5.50, the pIC50 (134 cancer cell lines; Homo sapiens, Daoy, read-out: IC50 in cell proliferation assay, cell line Daoy) was < 5.50 and the pIC50 (134 cancer cell lines; Homo sapiens, DoTc2-4510, read-out: IC50 in cell proliferation assay, cell line DoTc2 4510) was < 5.50. The pIC50 (134 cancer cell lines; Homo sapiens, FaDu, read-out: IC50 in cell proliferation assay, cell line FaDu) was < 5.50, the pIC50 (134 cancer cell lines; Homo sapiens, G-361, read-out: IC50 in cell proliferation assay, cell line G-361 (BRAF p.V600E)) was < 5.50 and the pIC50 (134 cancer cell lines; Homo sapiens, HCC827, read-out: IC50 in cell proliferation assay, cell line HCC827 (EGFR exon19del)) was 5.30. The pIC50 (134 cancer cell lines; Homo sapiens, HCC4006, read-out: IC50 in cell proliferation assay, cell line HCC4006 (EGFR exon19del)) was 5.21, the pIC50 (134 cancer cell lines; Homo sapiens, HCT-15, read-out: IC50 in cell proliferation assay, cell line HCT 15) was < 5.50 and the pIC50 (134 cancer cell lines; Homo sapiens, HCT-116, read-out: IC50 in cell proliferation assay, cell line HCT 116) was < 5.50. For the same molecule, the pIC50 (134 cancer cell lines; Homo sapiens, HEC-1, read-out: IC50 in cell proliferation assay, HEC-1 cell line) was 5.52, the pIC50 (134 cancer cell lines; Homo sapiens, HEC-1B, read-out: IC50 in cell proliferation assay, HEC-1-B cell line (EGFR p.A864V)) was < 5.50 and the pIC50 (134 cancer cell lines; Homo sapiens, HL-60, read-out: IC50 in cell proliferation assay, HL-60 cell line) was < 5.50. The pIC50 (134 cancer cell lines; Homo sapiens, HT, read-out: IC50 in cell proliferation assay, HT cell line) was < 5.50, the pIC50 (134 cancer cell lines; Homo sapiens, HT-1080, read-out: IC50 in cell proliferation assay, HT-1080 cell line) was 5.52 and the pIC50 (134 cancer cell lines; Homo sapiens, Hs-578T, read-out: IC50 in cell proliferation assay, Hs 578T cell line) was < 5.50. For the same molecule, the pIC50 (134 cancer cell lines; Homo sapiens, HuTu80, read-out: IC50 in cell proliferation assay, HuTu 80 cell line) was 7.41, the pIC50 (134 cancer cell lines; Homo sapiens, J82, read-out: IC50 in cell proliferation assay, J82 cell line) was < 5.50 and the pIC50 (134 cancer cell lines; Homo sapiens, Jurkat E6.1, read-out: IC50 in cell proliferation assay, Jurkat E6.1 cell line) was < 5.50. For the same molecule, the pIC50 (134 cancer cell lines; Homo sapiens, K562, read-out: IC50 in cell proliferation assay, K-562 cell line) was < 5.50, the pIC50 (134 cancer cell lines; Homo sapiens, KATO III, read-out: IC50 in cell proliferation assay, KATO III cell line (FGFR2 amplification)) was 8.10 and the pIC50 (134 cancer cell lines; Homo sapiens, KG-1, read-out: IC50 in cell proliferation assay, KG-1 cell line (FGFR1OP2-FGFR1)) was 8.64. The pIC50 (134 cancer cell lines; Homo sapiens, KLE, read-out: IC50 in cell proliferation assay, KLE cell line) was < 5.50, the pIC50 (134 cancer cell lines; Homo sapiens, KMS-11, read-out: IC50 in cell proliferation assay, KMS-11 cell line (FGFR3 p.Y373C)) was 7.59 and the pIC50 (134 cancer cell lines; Homo sapiens, KU812, read-out: IC50 in cell proliferation assay, Ku812 cell line) was < 5.50. The pIC50 (134 cancer cell lines; Homo sapiens, Kasumi 1, read-out: IC50 in cell proliferation assay, Kasumi-1 cell line (KIT p.N822K)) was 5.47, the pIC50 (134 cancer cell lines; Homo sapiens, LC-2-ad, read-out: IC50 in cell proliferation assay, LC-2/ad cell line (CCDC6-RET)) was 5.46 and the pIC50 (134 cancer cell lines; Homo sapiens, LNCaP-Clone-FGC, read-out: IC50 in cell proliferation assay, LNCaP clone FGC cell line) was < 5.50. The pIC50 (134 cancer cell lines; Homo sapiens, LS174T, read-out: IC50 in cell proliferation assay, LS174T cell line) was < 5.50, the pIC50 (134 cancer cell lines; Homo sapiens, LS-411N, read-out: IC50 in cell proliferation assay, LS411N cell line (BRAF p.V600E)) was < 5.50 and the pIC50 (134 cancer cell lines; Homo sapiens, LoVo, read-out: IC50 in cell proliferation assay, LoVo cell line) was < 5.50. For the same molecule, the pIC50 (134 cancer cell lines; Homo sapiens, MCF7, read-out: IC50 in cell proliferation assay, MCF-7 cell line) was < 5.50, the pIC50 (134 cancer cell lines; Homo sapiens, MDA-MB-231, read-out: IC50 in cell proliferation assay, MDA-MB-231 cell line) was < 5.50 and the pIC50 (134 cancer cell lines; Homo sapiens, MDA-MB-453, read-out: IC50 in cell proliferation assay, MDA-MB-453 cell line) was 6.18. The pIC50 (134 cancer cell lines; Homo sapiens, MDA-MB-468, read-out: IC50 in cell proliferation assay, MDA-MB-468 cell line) was < 5.50, the pIC50 (134 cancer cell lines; Homo sapiens, MG-63, read-out: IC50 in cell proliferation assay, MG-63 cell line) was 6.72 and the pIC50 (134 cancer cell lines; Homo sapiens, MIA PaCa-2, read-out: IC50 in cell proliferation assay, MIA PaCa-2 cell line) was < 5.50. For the same molecule, the pIC50 (134 cancer cell lines; Homo sapiens, MKN-45, read-out: IC50 in cell proliferation assay, MKN45 cell line (MET amplification)) was 5.37 and the pIC50 (134 cancer cell lines; Homo sapiens, MOLM-13, read-out: IC50 in cell proliferation assay, MOLM-13 cell line (FLT3 ITD)) was 5.40.
